Test results taken from PMC10218596 (International Journal of Molecular Sciences, 2023).
Like-named read-outs stand apart in the source and are kept apart here. Where a SMILES comes first, the peptide text is derived from it. Bridges are numbered along the chain shown (N, C = ends).

Experiments:
h[α6S10A/α3]β4 = format: cell-based, human
h[α6Q14R/α3]β4 [1] = target: T1, h[α6Q14R/α3]β4 (Homo sapiens, UniProt P30926+P32297+Q15825, Q47R); format: cell-based
T1 construct: formed by splicing the N-terminal extracellular domain of the α6 subunit with the α3 subunit; human nAChR α3 subunit (CHRNA3); expressed in transfected cells; host or cells: Xenopus laevis oocytes injected with cRNA (plasmids from the University of Utah)

h[α6Q14R/α3]β4 [2] = format: cell-based, human
h[α6V32L/α3]β4 [3] = target: T2, h[α6V32L/α3]β4 (Homo sapiens, UniProt P30926+P32297+Q15825, V65L); assay: cell-based
T2 construct: formed by splicing the N-terminal extracellular domain of the α6 subunit with the α3 subunit; human nAChR α3 subunit (CHRNA3); expressed in transfected cells; host or cells: Xenopus laevis oocytes injected with cRNA (plasmids from the University of Utah)

h[α6V32L/α3]β4 [4] = assay: cell-based; design: species or system human
h[α6I56V/α3]β4 = target: T3, h[α6I56V/α3]β4 (Homo sapiens, UniProt P30926+P32297+Q15825, I89V); format: cell-based
T3 construct: formed by splicing the N-terminal extracellular domain of the α6 subunit with the α3 subunit; human nAChR α3 subunit (CHRNA3); expressed in transfected cells; host or cells: Xenopus laevis oocytes injected with cRNA (plasmids from the University of Utah)

h[α6N58K/α3]β4 = target: T4, h[α6N58K/α3]β4 (Homo sapiens, UniProt P30926+P32297+Q15825, N91K); format: cell-based
T4 construct: formed by splicing the N-terminal extracellular domain of the α6 subunit with the α3 subunit; human nAChR α3 subunit (CHRNA3); expressed in transfected cells; host or cells: Xenopus laevis oocytes injected with cRNA (plasmids from the University of Utah)

h[α6K61R/α3]β4 = target: T5, h[α6K61R/α3]β4 (Homo sapiens, UniProt P30926+P32297+Q15825, K94R); assay: cell-based
T5 construct: formed by splicing the N-terminal extracellular domain of the α6 subunit with the α3 subunit; human nAChR α3 subunit (CHRNA3); expressed in transfected cells; host or cells: Xenopus laevis oocytes injected with cRNA (plasmids from the University of Utah)

h[α6R63C/α3]β4 [5] = target: T6, h[α6R63C/α3]β4 (Homo sapiens, UniProt P30926+P32297+Q15825, R96C); format: cell-based
T6 construct: formed by splicing the N-terminal extracellular domain of the α6 subunit with the α3 subunit; human nAChR α3 subunit (CHRNA3); expressed in transfected cells; host or cells: Xenopus laevis oocytes injected with cRNA (plasmids from the University of Utah)

h[α6R63C/α3]β4 [6] = format: cell-based, human
h[α6M67T/α3]β4 [7] = target: T7, h[α6M67T/α3]β4 (Homo sapiens, UniProt P30926+P32297+Q15825, M100T); format: cell-based
T7 construct: formed by splicing the N-terminal extracellular domain of the α6 subunit with the α3 subunit; fusion partner: remainder of the human α3 subunit (CHRNA3); expressed in transfected cells; host or cells: Xenopus laevis oocytes injected with cRNA

h[α6M67T/α3]β4 [8] = format: cell-based, human
h[α6K81N/α3]β4 [9] = target: T8, h[α6K81N/α3]β4 (Homo sapiens, UniProt P30926+P32297+Q15825, K114N); format: cell-based
T8 construct: formed by splicing the N-terminal extracellular domain of the α6 subunit with the α3 subunit; fusion partner: remainder of the human α3 subunit (CHRNA3); expressed in transfected cells; host or cells: Xenopus laevis oocytes injected with cRNA

h[α6K81N/α3]β4 [10] = format: cell-based, human
h[α6N110D/α3]β4 = target: T9, h[α6N110D/α3]β4 (Homo sapiens, UniProt P30926+P32297+Q15825, N143D); format: cell-based
T9 construct: formed by splicing the N-terminal extracellular domain of the α6 subunit with the α3 subunit; fusion partner: remainder of the human α3 subunit (CHRNA3); expressed in transfected cells; host or cells: Xenopus laevis oocytes injected with cRNA

h[α6M112V/α3]β4 = target: T10, h[α6M112V/α3]β4 (Homo sapiens, UniProt P30926+P32297+Q15825, M145V); format: cell-based
T10 construct: formed by splicing the N-terminal extracellular domain of the α6 subunit with the α3 subunit; fusion partner: remainder of the human α3 subunit (CHRNA3); expressed in transfected cells; host or cells: Xenopus laevis oocytes injected with cRNA

h[α6I176V/α3]β4 = target: T11, h[α6I176V/α3]β4 (Homo sapiens, UniProt P30926+P32297+Q15825, I209V); format: cell-based
T11 construct: formed by splicing the N-terminal extracellular domain of the α6 subunit with the α3 subunit; fusion partner: remainder of the human α3 subunit (CHRNA3); expressed in transfected cells; host or cells: Xenopus laevis oocytes injected with cRNA

hα6/α3β4L107V, V115I = target: T12, hα6/α3β4L107V, V115I (Homo sapiens, UniProt P30926+Q15825, L133V/V141I); assay: cell-based; format: cell-based
T12 construct: formed by splicing the N-terminal extracellular domain of the α6 subunit with the α3 subunit; fusion partner: remainder of the human α3 subunit (CHRNA3); expressed in transfected cells; host or cells: Xenopus laevis oocytes injected with cRNA

h[α6V32L, K61R/α3]β4 = format: cell-based, human
[11] = target: T13, h[α6V32L, K61R/α3]β4L107V,V115I (Homo sapiens, UniProt P30926+P32297+Q15825, K94R/L133V/V141I/V65L); assay: cell-based
T13 construct: formed by splicing the N-terminal extracellular domain of the α6 subunit with the α3 subunit; fusion partner: remainder of the human α3 subunit (CHRNA3); expressed in transfected cells; host or cells: Xenopus laevis oocytes injected with cRNA

rα6/α3β4 = target: T14, rα6/α3β4 (Rattus norvegicus, UniProt P04757+P12392+P43143); format: cell-based
T14 construct: formed by splicing the N-terminal extracellular domain of the α6 subunit with the α3 subunit; fusion partner: remainder of the rat α3 subunit (Chrna3); expressed in transfected cells; host or cells: Xenopus laevis oocytes injected with cRNA

rat α6/α3β2β3 nAChR = settings: cited from earlier work
human α6/α3β2β3 nAChR = settings: cited from earlier work
[12] = read-out: inhibition of the current response to 100 μM ACh

T13 sequence (Q15825+P32297 fused with the stated changes): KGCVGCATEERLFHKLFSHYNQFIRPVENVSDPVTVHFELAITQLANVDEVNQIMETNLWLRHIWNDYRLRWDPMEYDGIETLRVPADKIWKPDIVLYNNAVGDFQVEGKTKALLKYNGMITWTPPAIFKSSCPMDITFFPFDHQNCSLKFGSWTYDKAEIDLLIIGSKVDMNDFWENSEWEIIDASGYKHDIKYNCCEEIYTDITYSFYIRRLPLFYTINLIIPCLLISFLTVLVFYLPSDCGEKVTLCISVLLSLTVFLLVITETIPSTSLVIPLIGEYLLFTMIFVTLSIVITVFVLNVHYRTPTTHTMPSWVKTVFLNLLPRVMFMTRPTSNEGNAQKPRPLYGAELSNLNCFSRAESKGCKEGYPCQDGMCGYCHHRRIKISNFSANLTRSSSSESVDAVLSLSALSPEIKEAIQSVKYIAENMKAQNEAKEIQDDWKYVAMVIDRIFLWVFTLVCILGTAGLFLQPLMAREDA
T13 sequence (P30926 22-498 L133V/V141I): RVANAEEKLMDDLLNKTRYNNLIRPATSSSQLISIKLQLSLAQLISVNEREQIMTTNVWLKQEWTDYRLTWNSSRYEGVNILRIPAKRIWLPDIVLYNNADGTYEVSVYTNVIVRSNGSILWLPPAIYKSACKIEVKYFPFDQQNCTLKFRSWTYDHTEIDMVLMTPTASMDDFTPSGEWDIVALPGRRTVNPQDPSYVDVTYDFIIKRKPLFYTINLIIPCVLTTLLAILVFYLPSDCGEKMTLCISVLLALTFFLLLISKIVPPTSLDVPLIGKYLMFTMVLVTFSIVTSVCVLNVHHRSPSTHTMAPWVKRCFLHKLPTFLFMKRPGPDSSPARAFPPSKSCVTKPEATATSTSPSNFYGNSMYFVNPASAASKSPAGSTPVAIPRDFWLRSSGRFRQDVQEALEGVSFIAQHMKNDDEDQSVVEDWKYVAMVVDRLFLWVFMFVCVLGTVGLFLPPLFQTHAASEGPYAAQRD
T12 sequence (Q15825 26-239 limits assumed): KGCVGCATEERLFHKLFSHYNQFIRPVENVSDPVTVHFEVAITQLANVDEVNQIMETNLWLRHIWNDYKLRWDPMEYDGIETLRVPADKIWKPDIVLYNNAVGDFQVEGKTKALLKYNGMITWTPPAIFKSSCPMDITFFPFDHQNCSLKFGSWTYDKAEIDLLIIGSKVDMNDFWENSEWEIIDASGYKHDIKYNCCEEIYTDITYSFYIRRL
T12 sequence (P30926 22-498 L133V/V141I): as the sequence (P30926 22-498 L133V/V141I) above
T5 sequence (Q15825+P32297 fused with the stated changes): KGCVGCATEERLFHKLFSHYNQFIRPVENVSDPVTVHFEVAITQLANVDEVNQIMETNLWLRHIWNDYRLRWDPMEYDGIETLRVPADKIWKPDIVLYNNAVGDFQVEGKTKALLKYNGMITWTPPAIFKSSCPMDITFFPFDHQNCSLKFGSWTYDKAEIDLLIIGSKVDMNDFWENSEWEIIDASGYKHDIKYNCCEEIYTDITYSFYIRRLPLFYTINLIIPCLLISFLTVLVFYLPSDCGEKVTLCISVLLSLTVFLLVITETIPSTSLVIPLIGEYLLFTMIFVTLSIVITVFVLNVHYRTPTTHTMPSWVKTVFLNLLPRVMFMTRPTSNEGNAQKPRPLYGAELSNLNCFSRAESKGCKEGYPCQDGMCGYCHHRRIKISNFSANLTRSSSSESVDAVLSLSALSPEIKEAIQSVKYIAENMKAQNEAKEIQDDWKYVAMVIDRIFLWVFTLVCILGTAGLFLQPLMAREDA
T5 sequence (P30926 22-498): as the sequence (P30926 22-498 L133V/V141I) above, with V112L, I120V counted along it
T10 sequence (Q15825+P32297 fused with the stated changes): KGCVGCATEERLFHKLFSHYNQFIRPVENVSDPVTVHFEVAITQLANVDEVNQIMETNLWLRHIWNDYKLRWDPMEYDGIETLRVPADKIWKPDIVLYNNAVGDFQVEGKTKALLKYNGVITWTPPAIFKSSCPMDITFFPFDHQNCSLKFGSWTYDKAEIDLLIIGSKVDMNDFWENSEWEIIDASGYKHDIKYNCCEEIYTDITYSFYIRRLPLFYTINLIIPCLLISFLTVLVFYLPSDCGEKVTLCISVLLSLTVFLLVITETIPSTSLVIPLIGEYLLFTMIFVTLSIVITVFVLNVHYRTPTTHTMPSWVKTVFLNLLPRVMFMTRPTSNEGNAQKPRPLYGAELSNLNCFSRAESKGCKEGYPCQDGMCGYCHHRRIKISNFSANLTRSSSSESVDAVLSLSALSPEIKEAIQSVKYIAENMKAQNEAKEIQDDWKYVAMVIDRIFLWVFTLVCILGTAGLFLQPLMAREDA
T10 sequence (P30926 22-498): as the sequence (P30926 22-498 L133V/V141I) above, with V112L, I120V counted along it
T9 sequence (Q15825+P32297 fused with the stated changes): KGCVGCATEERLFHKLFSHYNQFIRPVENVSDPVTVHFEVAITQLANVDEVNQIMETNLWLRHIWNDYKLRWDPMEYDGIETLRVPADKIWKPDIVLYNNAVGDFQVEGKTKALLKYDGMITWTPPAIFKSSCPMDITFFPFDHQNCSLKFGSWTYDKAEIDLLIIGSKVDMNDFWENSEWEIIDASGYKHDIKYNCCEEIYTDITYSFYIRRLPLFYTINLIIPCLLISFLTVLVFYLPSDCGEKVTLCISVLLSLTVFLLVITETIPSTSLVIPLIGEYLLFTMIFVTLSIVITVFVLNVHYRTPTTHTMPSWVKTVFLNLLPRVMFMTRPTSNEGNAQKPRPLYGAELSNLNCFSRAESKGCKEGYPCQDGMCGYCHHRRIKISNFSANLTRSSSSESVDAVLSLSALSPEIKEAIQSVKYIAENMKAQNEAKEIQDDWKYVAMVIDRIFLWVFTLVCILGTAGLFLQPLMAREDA
T9 sequence (P30926 22-498): as the sequence (P30926 22-498 L133V/V141I) above, with V112L, I120V counted along it

SMILES: CC(C)C[C@@H]1NC(=O)[C@H](CC(=O)O)NC(=O)[C@@H]2CCCN2C(=O)[C@H](Cc2c[nH]cn2)NC(=O)[C@H](CCCCN)NC(=O)[C@H](CC(N)=O)NC(=O)[C@H](CCCNC(=N)N)NC(=O)[C@@H]2CSSC[C@H](NC(=O)CN)C(=O)N[C@@H](CSSC[C@@H](C(N)=O)NC1=O)C(=O)N[C@@H](CO)C(=O)N[C@@H](CC(=O)O)C(=O)N1CCC[C@H]1C(=O)N1CCC[C@H]1C(=O)N2 [TxIB] (H-GCCSDPPCRNKHPDLC-NH2; disulfide 2-8, 3-16)
- Ratio (change in TxIB IC50 relative to hα6/α3β4) (h[α6S10A/α3]β4): 1.2
- Hill Slope (h[α6Q14R/α3]β4 [1]): 0.9 (0.7–1.2)
- Ratio (change in TxIB IC50 relative to hα6/α3β4) (h[α6Q14R/α3]β4 [2]): 1
- Hill Slope (h[α6V32L/α3]β4 [3]): 0.7 (0.7–0.8)
- activity at 10 µM (h[α6V32L/α3]β4 [3]; [12]): 25.3 ± 5.23%
- Ratio (change in TxIB IC50 relative to hα6/α3β4) (h[α6V32L/α3]β4 [4]): 4.2
- Hill Slope (h[α6I56V/α3]β4): 1.0 (0.9–1.2)
- Ratio (change in TxIB IC50 relative to hα6/α3β4) (h[α6I56V/α3]β4): 0.9
- Hill Slope (h[α6N58K/α3]β4): 0.9 (0.8–1.1)
- Ratio (change in TxIB IC50 relative to hα6/α3β4) (h[α6N58K/α3]β4): 0.9
- Hill Slope (h[α6K61R/α3]β4): 0.8 (0.7–0.9)
- Ratio (change in TxIB IC50 relative to hα6/α3β4) (h[α6K61R/α3]β4): 3.4
- activity at 10 µM (h[α6K61R/α3]β4; [12]): 22.1 ± 4.7%
- Hill Slope (h[α6R63C/α3]β4 [5]): 0.9 (0. 8–1.1)
- Ratio (change in TxIB IC50 relative to hα6/α3β4) (h[α6R63C/α3]β4 [6]): 0.9
- Hill Slope (h[α6M67T/α3]β4 [7]): 0.9 (0.7–1.0)
- Ratio (change in TxIB IC50 relative to hα6/α3β4) (h[α6M67T/α3]β4 [8]): 1.1
- Hill Slope (h[α6K81N/α3]β4 [9]): 0.8 (0.7–0.9)
- Ratio (change in TxIB IC50 relative to hα6/α3β4) (h[α6K81N/α3]β4 [10]): 1.2
- Hill Slope (h[α6N110D/α3]β4): 0.9 (0.8–1.0)
- Ratio (change in TxIB IC50 relative to hα6/α3β4) (h[α6N110D/α3]β4): 1.6
- Hill Slope (h[α6M112V/α3]β4): 0.8 (0.7–0.9)
- Ratio (change in TxIB IC50 relative to hα6/α3β4) (h[α6M112V/α3]β4): 0.6
- Hill Slope (h[α6I176V/α3]β4): 0.8 (0.7–0.9)
- Ratio (change in TxIB IC50 relative to hα6/α3β4) (h[α6I176V/α3]β4): 0.8
- Hill Slope (hα6/α3β4L107V, V115I): 0.8 (0.8–0.9)
- Ratio (change in TxIB IC50 relative to hα6/α3β4) (hα6/α3β4L107V, V115I): 4.9
- time to full restoration of currents blocked by TxIB (hα6/α3β4L107V, V115I): ≤ 1 min
- activity at 10 µM (hα6/α3β4L107V, V115I; [12]): 25.1 ± 11.2%
- Ratio (change in TxIB IC50 relative to hα6/α3β4) (h[α6V32L, K61R/α3]β4): 8.1
- time to full restoration of currents blocked by TxIB (h[α6V32L, K61R/α3]β4): ≤ 1 min
- IC50 (h[α6V32L, K61R/α3]β4; read-out: IC50): 4.3 µM
- IC50 (h[α6V32L, K61R/α3]β4; read-out: IC50 (95% CI)): 4.34 µM
- activity (h[α6V32L, K61R/α3]β4; [12]): 31.9 ± 8.05%
- Hill Slope [11]: 0.8 (0.6–0.9)
- Ratio (change in TxIB IC50 relative to hα6/α3β4) [11]: 42
- time to full restoration of currents blocked by TxIB [11]: ≤ 1 min
- activity at 10 µM [11, 12]: 60.2 ± 8.66%
- blocking effect (rα6/α3β4): almost no blocking effect
- IC50 (rat α6/α3β2β3 nAChR): 0.028 µM
- blocking effect (human α6/α3β2β3 nAChR): significant blocking effect
